Test results as given in patent publication US9382230B2, “Methods and compositions for modulating Ire1, SRC and ABL activity” (The Regents of the University of California, priority 2008, dated 2016).

What was measured:
Ire1 = test: Summary statement of Ire1 activation or inhibition (assay not specified)
[1] = system: Xbp-1 mRNA splicing (UPR activation through Ire1) in HEK293 cells; test: XBP-1 mRNA splicing by RT-PCR in HEK293 cells (UPR); assay type: cell-based, mammalian; settings: Hek293 cells treated for 4 hrs, RT-PCR
Procedure: The effect of tunicamycin, SU11248, DJM2005, APY24, and APY29 on Ire1 activity was tested in mammalian cells using HEK293 cells as a model system. Cells were treated according to the methods described in Lin J H et al., Science 318:944 (2007). After treatment with the corresponding agents for the indicated time, Xbp-1 mRNA splicing was determined by RT-PCR. Unspliced (u) and spliced (s) Xbp1-mRNA products are indicated and serve as a measure of UPR activation through Ire1.
Exemplary compounds were assayed for their effect on UPR. Results are set forth in FIGS. 18-19 and in the table below.

yIre1 [2] = molecular target: T1, yIre1 (Saccharomyces cerevisiae, UniProt P32361); test: RNA cleavage-based yIre1 inhibition assay with pre-activated purified Ire1; assay type: biochemical, yeast; settings: 1.5 μM yIre1, 100 μM ADP-2 mM Mg, 30 μM effector (FIG. 21A)
T1 construct: GST (N); made in house; host or cells: E. coli BL21 CodonPlus (RIPL)
T1 sequence (P32361 with tags, fused parts or gaps limits assumed): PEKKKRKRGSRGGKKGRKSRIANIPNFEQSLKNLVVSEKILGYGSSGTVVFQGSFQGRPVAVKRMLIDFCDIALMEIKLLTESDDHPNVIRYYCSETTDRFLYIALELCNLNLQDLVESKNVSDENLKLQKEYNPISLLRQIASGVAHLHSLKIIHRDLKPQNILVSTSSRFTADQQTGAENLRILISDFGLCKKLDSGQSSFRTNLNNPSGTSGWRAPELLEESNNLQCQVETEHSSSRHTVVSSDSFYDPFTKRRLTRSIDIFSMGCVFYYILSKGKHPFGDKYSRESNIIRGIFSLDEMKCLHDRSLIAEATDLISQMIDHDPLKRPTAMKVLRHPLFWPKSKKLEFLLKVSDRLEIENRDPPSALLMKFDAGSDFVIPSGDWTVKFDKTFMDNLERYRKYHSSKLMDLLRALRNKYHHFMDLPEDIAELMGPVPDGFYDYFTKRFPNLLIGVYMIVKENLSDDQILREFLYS
Procedure: FIGS. 21A and B. A. RNA cleavage-based yIre1 inhibition assay with purified Ire1 under conditions that have pre-activated Ire1. […] Thus, some APY compounds could serve as both Ire1 RNase inhibitors or Ire1 RNase activators, depending on the experimental setting.
[…] Reaction solutions and buffers were designed using Biochem Lab Solutions 3.5. Reactions were prepared such that 1 μl of RNA was added to 9 μl of pre-warmed reaction mixture containing all components except RNA. Typically, 3-10 minute time courses were collected starting from 5 seconds for the first time point. At time intervals, 1 μl of solution was withdrawn from each reaction and mixed wish 6 μl stop solution containing 10 M urea, 0.1% SDS, 0.1 mM EDTA, 0.05% xylene cyanol, and 0.05% bromophenol blue. The samples were separated by a denaturing 10% PAGE and exposed on a phosphor storage screen. The screens were scanned on a Storm or a Typhoon instrument and quantified using ImageQuant 5.0 or GelQuant.NET 1.4 programs. The data were plotted and fit in SigmaPlot 6.0.
An RNA cleavage inhibition assay was also performed with exemplary compounds as shown by FIG. 21A (1.5 μM yIre1 mm loop RNA, 100 μM ADP-2 mM Mg, 30 μM effector).

yIre1 [3] = molecular target: T1, yIre1; test: RNA cleavage-based yIre1 activation assay; assay type: biochemical, yeast; parameters: unit not given here; settings: 3 μM yIre1, stem loop RNA, 15 μM effector
Procedure: The RNase Cleavage Assay.
RNA cleavage reactions were conducted at 30° C. in buffer containing 20 mM HEPES (pH 7.5), 70 mM NaCl, 2 mM ADP (pH 7.0), 2 mM Mg(OAc)2, 5 mM DTT, 5% glycerol, less than 1 nM ^32p-labeled RNA substrate, and 3 nM-20 μM Ire1. Reaction solutions and buffers were designed using Biochem Lab Solutions 3.5. Reactions were prepared such that 1 μl of RNA was added to 9 μl of pre-warmed reaction mixture containing all components except RNA. Typically, 3-10 minute time courses were collected starting from 5 seconds for the first time point. At time intervals, 1 μl of solution was withdrawn from each reaction and mixed wish 6 μl stop solution containing 10 M urea, 0.1% SDS, 0.1 mM EDTA, 0.05% xylene cyanol, and 0.05% bromophenol blue. The samples were separated by a denaturing 10% PAGE and exposed on a phosphor storage screen. The screens were scanned on a Storm or a Typhoon instrument and quantified using ImageQuant 5.0 or GelQuant.NET 1.4 programs. The data were plotted and fit in SigmaPlot 6.0.
RNA cleavage can be used to assess yIre1 activation as shown by FIG. 20 and the table below (3 μM yIre1, stem loop RNA, 15 μM effector): […]

inhibition of Ire1 RNase (yIre1 [2]): inhibit Ire1
RNA cleavage (yIre1 activation) (yIre1 [3]): 0.001872
Structure (SMILES): Cc1cc(Nc2cc(C3CCCCC3)n[nH]2)nc(Nc2ccc(CC#N)cc2)n1 [APY81]
inhibition of Ire1 (Ire1): significant inhibition
% splicing mRNA XBP-I Average ([1]; Tm 0.3 ug/ml + compound 2 μM): 7%
% splicing mRNA XBP-I Average ([1]; compound 2 μM): 11%
% splicing mRNA XBP-I Average ([1]; compound 10 μM): 16%
